# Test results as given in patent US11737999B2, “Amino acid compositions and methods for the treatment of post-acute sequelae of COVID-19” (AXCELLA HEALTH INC., priority 2021, dated 2023).
# Key:
# MCP1/CCL2 = MCP1/CCL2 secretion by ELISA in primary human hepatocytes with FFA + TNFα; type: cell-based
# MCP-1 = MCP-1 chemokine secretion in primary human hepatic stellate cells stimulated with TNFα; type: cell-based; settings: hepatic stellate cells, two donors
# IL-6 [1] = assay: IL-6 cytokine secretion in primary human hepatic stellate cells stimulated with TNFα; type: cell-based; settings: hepatic stellate cells, two donors
# Col1a1 = Col1a1 gene expression (RT-qPCR) in primary human hepatic stellate cells stimulated with TGFβ1; type: cell-based; settings: for Col1a1 Fold Expression Relative to Control, Mean: single amino acid
# Procollagen Iα1 = Procollagen Iα1 secretion (ELISA) in primary human hepatic stellate cells stimulated with TGFβ1; type: cell-based; settings: hepatic stellate cells, three donors
# IL-6 [2] = assay: LPS-induced IL-6 secretion in primary human monocyte-derived macrophages; settings: for IL-6 Measurements, Mean: LPS, baseline subtracted values
# TNF-α = assay: LPS-induced TNF-α secretion in primary human monocyte-derived macrophages; settings: for TNF-α Measurements Mean (baseline subtracted): 0.15 ng/mL LPS
# [3] = Donor 2, Conc. 749 μM (baseline)
# [4] = Donor 2, Conc. 153 μM (baseline)
structure (smiles),measurement,setting,value
"N=C(N)NCCC[C@H](N)C(=O)O [Arginine, L-Arginine]",MCP1/CCL2 secretion (summary in words),"MCP1/CCL2; primary human hepatocytes, two healthy donors",increased MCP1 secretion
same,MCP-1 secretion (summary in words),MCP-1,no significant impact on MCP-1 secretion
same,IL-6 secretion (summary in words),IL-6 [1],no significant effect on IL-6 secretion
same,Col1a1 gene expression (summary in words),"Col1a1; hepatic stellate cells, three donors",did not significantly change Col1a1 gene expression in any donor
same,"Col1a1 Fold Expression Relative to Control, Mean","Col1a1; second donor (Table 27), 1088 μM",0.99 fold
same,"Col1a1 Fold Expression Relative to Control, Mean","Col1a1; second donor (Table 27), 2720 μM",1.15 fold
same,"Col1a1 Fold Expression Relative to Control, Mean","Col1a1; second donor (Table 27), 5440 μM",1.15 fold
same,"Col1a1 Fold Expression Relative to Control, Mean","Col1a1; second donor (Table 29), 1088 μM",0.95 fold
same,"Col1a1 Fold Expression Relative to Control, Mean","Col1a1; second donor (Table 29), 2720 μM",0.99 fold
same,"Col1a1 Fold Expression Relative to Control, Mean","Col1a1; second donor (Table 29), 5440 μM",1.02 fold
same,procollagen Iα1 secretion (summary in words),Procollagen Iα1,significantly increased procollagen Iα1 secretion in two of three donors
same,LPS-induced IL-6 secretion (summary in words),IL-6 [2]; Donor 1,increased IL-6 secretion
"NC(=O)CC[C@H](N)C(=O)O [Glutamine, L-Glutamine]","MCP1 expression relative to Control, Mean","MCP1/CCL2; Donor 1, Conc. 749 μM",0
same,"MCP1 expression relative to Control, Mean","MCP1/CCL2; Donor 1, Conc. 3747 μM",−0.8981
same,"MCP1 expression relative to Control, Mean","MCP1/CCL2; Donor 1, Conc. 11242 μM",−9.001
same,"MCP1 expression relative to Control, Mean","MCP1/CCL2; Donor 1, Conc. 22484 μM",−21.8392
same,"MCP1 expression relative to Control, Mean","MCP1/CCL2; Donor 2, Conc. 749 μM",2.84E−14
same,"MCP1 expression relative to Control, Mean","MCP1/CCL2; Donor 2, Conc. 3747 μM",−45.0574
same,"MCP1 expression relative to Control, Mean","MCP1/CCL2; Donor 2, Conc. 11242 μM",−90.6558
same,"MCP1 expression relative to Control, Mean","MCP1/CCL2; Donor 2, Conc. 22484 μM",−138.873
same,MCP-1 secretion (summary in words),MCP-1,reduced MCP1 secretion in both donors but was only statistically significant in one of two donors
same,IL-6 secretion (summary in words),IL-6 [1],significantly reduced IL-6 secretion in both donors
same,LPS-induced IL-6 secretion (summary in words),IL-6 [2]; Donor 1,increased IL-6 secretion
same,"IL-6 Measurements, Mean","IL-6 [2]; Donor 1, Conc. 749 μM (baseline)",0
same,LPS-induced IL-6 secretion (summary in words),IL-6 [2]; Donor 2,increased IL-6 secretion
same,"IL-6 Measurements, Mean",IL-6 [2]; [3],2.37E−15
same,"IL-6 Measurements, Mean","IL-6 [2]; Donor 2, Conc. 3747 μM",22.52
same,"IL-6 Measurements, Mean","IL-6 [2]; Donor 2, Conc. 11242 μM",63.31
same,"IL-6 Measurements, Mean","IL-6 [2]; Donor 2, Conc. 22484 μM",34.39
same,LPS-induced IL-6 secretion (summary in words),IL-6 [2]; Donor 3,significantly increased IL-6 secretion
same,TNF-α Measurements Mean (baseline subtracted),"TNF-α; Donor 1, Conc. 3747 μM",−45.7
same,TNF-α Measurements Mean (baseline subtracted),"TNF-α; Donor 1, Conc. 11242 μM",−65.24
same,TNF-α Measurements Mean (baseline subtracted),"TNF-α; Donor 1, Conc. 22484 μM",−103.07
same,LPS-induced TNF-α secretion (summary in words),TNF-α; Donor 2,increased TNF-α secretion
same,TNF-α Measurements Mean (baseline subtracted),TNF-α; [3],−9.5E−15
same,TNF-α Measurements Mean (baseline subtracted),"TNF-α; Donor 2, Conc. 3747 μM",9.338
same,TNF-α Measurements Mean (baseline subtracted),"TNF-α; Donor 2, Conc. 11242 μM",20.04
same,TNF-α Measurements Mean (baseline subtracted),"TNF-α; Donor 2, Conc. 22484 μM",11.5
same,LPS-induced TNF-α secretion (summary in words),TNF-α; Donor 3,increased TNF-α secretion
same,TNF-α Measurements Mean (baseline subtracted),"TNF-α; Donor 3, Conc. 749 μM (baseline)",0
same,TNF-α Measurements Mean (baseline subtracted),"TNF-α; Donor 3, Conc. 3747 μM",1.936
same,TNF-α Measurements Mean (baseline subtracted),"TNF-α; Donor 3, Conc. 11242 μM",18
same,TNF-α Measurements Mean (baseline subtracted),"TNF-α; Donor 3, Conc. 22484 μM",29.14
"CC(C)C[C@H](N)C(=O)O [Leucine, L-Leucine]","MCP1 expression relative to Control, Mean","MCP1/CCL2; Donor 1, Conc. 153 μM",5.92E−16
same,"MCP1 expression relative to Control, Mean","MCP1/CCL2; Donor 1, Conc. 3054 μM",3.34
same,"MCP1 expression relative to Control, Mean","MCP1/CCL2; Donor 1, Conc. 7635 μM",1.896
same,"MCP1 expression relative to Control, Mean","MCP1/CCL2; Donor 1, Conc. 15270 μM",−1.368
same,"MCP1 expression relative to Control, Mean","MCP1/CCL2; Donor 2, Conc. 153 μM",−4.7E−15
same,"MCP1 expression relative to Control, Mean","MCP1/CCL2; Donor 2, Conc. 3054 μM",16.11
same,"MCP1 expression relative to Control, Mean","MCP1/CCL2; Donor 2, Conc. 7635 μM",−2.988
same,"MCP1 expression relative to Control, Mean","MCP1/CCL2; Donor 2, Conc. 15270 μM",−26.6436
same,MCP-1 secretion (summary in words),MCP-1,no significant impact on MCP-1 secretion
same,IL-6 secretion (summary in words),IL-6 [1],no significant effect on IL-6 secretion
same,"IL-6 Measurements, Mean","IL-6 [2]; Donor 1, Conc. 153 μM (baseline)",0
same,LPS-induced IL-6 secretion (summary in words),IL-6 [2]; Donor 2,increased IL-6 secretion
same,"IL-6 Measurements, Mean",IL-6 [2]; [4],7.11E−15
same,"IL-6 Measurements, Mean","IL-6 [2]; Donor 2, Conc. 3054 μM",29.61
same,"IL-6 Measurements, Mean","IL-6 [2]; Donor 2, Conc. 7635 μM",30.46
same,"IL-6 Measurements, Mean","IL-6 [2]; Donor 2, Conc. 15270 μM",47.6
same,TNF-α Measurements Mean (baseline subtracted),"TNF-α; Donor 1, Conc. 3054 μM",42.04
same,TNF-α Measurements Mean (baseline subtracted),"TNF-α; Donor 1, Conc. 7635 μM",−23.04
same,TNF-α Measurements Mean (baseline subtracted),"TNF-α; Donor 1, Conc. 15270 μM",−46.21
same,LPS-induced TNF-α secretion (summary in words),TNF-α; Donor 2,increased TNF-α secretion
same,TNF-α Measurements Mean (baseline subtracted),TNF-α; [4],0
same,TNF-α Measurements Mean (baseline subtracted),"TNF-α; Donor 2, Conc. 3054 μM",31.74
same,TNF-α Measurements Mean (baseline subtracted),"TNF-α; Donor 2, Conc. 7635 μM",41.98
same,TNF-α Measurements Mean (baseline subtracted),"TNF-α; Donor 2, Conc. 15270 μM",46.69
